Data from patent publication US11168073B2, “3,3-difluoroallylamines or salts thereof and pharmaceutical compositions comprising the same” (YUHAN CORPORATION, priority 2018, dated 2021).
Where a name gives a salt, the structure may show the parent alone. Read-outs that look alike come from different tables or passages of the source.

Experiments:
Assay type in all cases: biochemical
[1] = molecular target: T1, recombinant human MAO-A (monoamine oxidase-A) (Homo sapiens, UniProt P21397); test: Activity evaluation on recombinant human MAO-A (Amplex Red/HRP-coupled assay, 0.5 mM tyramine substrate); settings: read-out: Inhibitory Activity (IC50, nM) MAO-A
T1 construct: purchased Sigma-Aldrich
T1 sequence (P21397 1-527): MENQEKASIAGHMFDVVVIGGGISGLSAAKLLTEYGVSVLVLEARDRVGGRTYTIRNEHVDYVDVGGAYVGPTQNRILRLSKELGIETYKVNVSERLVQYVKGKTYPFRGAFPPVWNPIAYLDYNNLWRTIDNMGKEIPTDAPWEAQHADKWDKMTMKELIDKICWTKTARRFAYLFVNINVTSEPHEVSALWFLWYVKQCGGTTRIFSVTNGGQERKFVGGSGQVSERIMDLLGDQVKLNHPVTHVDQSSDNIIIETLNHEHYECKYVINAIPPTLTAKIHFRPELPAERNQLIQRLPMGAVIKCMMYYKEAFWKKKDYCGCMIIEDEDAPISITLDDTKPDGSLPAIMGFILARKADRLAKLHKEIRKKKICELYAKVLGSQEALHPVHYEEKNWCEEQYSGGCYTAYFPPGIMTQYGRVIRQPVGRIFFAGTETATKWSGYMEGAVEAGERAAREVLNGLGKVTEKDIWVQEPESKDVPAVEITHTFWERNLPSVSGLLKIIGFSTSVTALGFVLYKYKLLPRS
How it was run: (§1)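 Compounds preincubated 30 min at 37 °C with enzyme in 50 mM sodium phosphate pH 7.4 (final DMSO <1%, 8-point 1:3 dilutions); reaction started with 200 uM Amplex Red, 1 U/mL HRP and substrate (MAO-A 0.5 mM tyramine, MAO-B 1 mM benzylamine, DAO 1 mM putrescine). Resorufin fluorescence (ex 544/em 590 nm) followed over 1-2 h; IC50 from four-parameter logistic fit.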

[2] = molecular target: T2, recombinant human VAP-1 (Homo sapiens, UniProt Q16853); test: Activity evaluation on recombinant human VAP-1 (Amplex Red/HRP-coupled hydrogen peroxide assay, benzylamine substrate); settings: read-out: Inhibitory Activity (IC50, nM) human VAP-1
T2 construct: purchased R&D systems
T2 sequence (Q16853 1-763): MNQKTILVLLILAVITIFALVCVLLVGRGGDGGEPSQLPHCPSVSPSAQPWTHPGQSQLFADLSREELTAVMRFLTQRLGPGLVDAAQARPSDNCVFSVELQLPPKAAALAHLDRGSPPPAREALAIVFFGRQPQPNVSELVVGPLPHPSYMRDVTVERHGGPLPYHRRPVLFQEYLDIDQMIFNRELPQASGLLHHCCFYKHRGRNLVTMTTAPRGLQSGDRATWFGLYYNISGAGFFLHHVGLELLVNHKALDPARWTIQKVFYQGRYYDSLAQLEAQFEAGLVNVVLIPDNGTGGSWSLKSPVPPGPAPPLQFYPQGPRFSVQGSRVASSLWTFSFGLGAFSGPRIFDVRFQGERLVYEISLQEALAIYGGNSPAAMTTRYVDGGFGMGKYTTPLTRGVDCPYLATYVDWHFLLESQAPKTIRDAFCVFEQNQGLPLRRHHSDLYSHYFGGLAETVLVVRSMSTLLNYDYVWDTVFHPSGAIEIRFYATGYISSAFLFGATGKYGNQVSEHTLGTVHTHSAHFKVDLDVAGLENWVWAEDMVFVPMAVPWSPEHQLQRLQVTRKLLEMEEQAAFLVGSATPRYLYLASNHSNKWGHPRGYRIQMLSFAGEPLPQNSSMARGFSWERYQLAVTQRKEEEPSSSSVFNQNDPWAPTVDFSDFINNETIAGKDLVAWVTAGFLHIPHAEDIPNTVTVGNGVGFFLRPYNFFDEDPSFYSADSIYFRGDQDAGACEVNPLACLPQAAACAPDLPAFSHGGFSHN
How it was run: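 Recombinant human VAP-1 in 50 mM sodium phosphate pH 7.4 preincubated 30 min at 37 °C with compound (8-point 1:3 series, <1% DMSO), then 1 mM benzylamine, 200 uM Amplex Red, 1 U/mL HRP added. H2O2-derived resorufin fluorescence (ex 544/em 590) followed 1–2 h; IC50 from four-parameter fit of rate inhibition.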

[3] = molecular target: T3, recombinant human MAO-B (monoamine oxidase-B) (Homo sapiens, UniProt P27338); test: Activity evaluation on recombinant human MAO-B (Amplex Red/HRP-coupled assay, 1 mM benzylamine substrate); settings: read-out: Inhibitory Activity (IC50, nM) MAO-B
T3 construct: purchased Sigma-Aldrich
T3 sequence (P27338 1-520): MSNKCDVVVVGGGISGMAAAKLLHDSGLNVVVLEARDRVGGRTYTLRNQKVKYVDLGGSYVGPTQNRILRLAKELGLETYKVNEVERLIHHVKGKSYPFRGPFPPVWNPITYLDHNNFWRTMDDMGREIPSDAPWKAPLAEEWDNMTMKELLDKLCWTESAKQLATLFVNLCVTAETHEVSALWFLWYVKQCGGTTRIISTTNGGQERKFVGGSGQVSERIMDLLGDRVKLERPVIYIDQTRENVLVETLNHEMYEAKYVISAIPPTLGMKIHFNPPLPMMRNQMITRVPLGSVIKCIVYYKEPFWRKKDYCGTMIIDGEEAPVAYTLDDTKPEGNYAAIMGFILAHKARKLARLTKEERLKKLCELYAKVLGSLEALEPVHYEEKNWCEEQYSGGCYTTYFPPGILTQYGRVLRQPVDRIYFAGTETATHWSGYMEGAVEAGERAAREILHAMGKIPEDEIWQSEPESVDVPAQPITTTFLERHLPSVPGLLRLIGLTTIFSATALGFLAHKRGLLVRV
How it was run: as §1

[4] = molecular target: T4, recombinant human DAO (diamine oxidase) (Homo sapiens, UniProt P19801); test: Activity evaluation on recombinant human DAO (Amplex Red/HRP-coupled assay, 1 mM putrescine substrate); settings: read-out: Inhibitory Activity (IC50, nM) DAO
T4 construct: purchased R&D systems
T4 sequence (P19801 20-751): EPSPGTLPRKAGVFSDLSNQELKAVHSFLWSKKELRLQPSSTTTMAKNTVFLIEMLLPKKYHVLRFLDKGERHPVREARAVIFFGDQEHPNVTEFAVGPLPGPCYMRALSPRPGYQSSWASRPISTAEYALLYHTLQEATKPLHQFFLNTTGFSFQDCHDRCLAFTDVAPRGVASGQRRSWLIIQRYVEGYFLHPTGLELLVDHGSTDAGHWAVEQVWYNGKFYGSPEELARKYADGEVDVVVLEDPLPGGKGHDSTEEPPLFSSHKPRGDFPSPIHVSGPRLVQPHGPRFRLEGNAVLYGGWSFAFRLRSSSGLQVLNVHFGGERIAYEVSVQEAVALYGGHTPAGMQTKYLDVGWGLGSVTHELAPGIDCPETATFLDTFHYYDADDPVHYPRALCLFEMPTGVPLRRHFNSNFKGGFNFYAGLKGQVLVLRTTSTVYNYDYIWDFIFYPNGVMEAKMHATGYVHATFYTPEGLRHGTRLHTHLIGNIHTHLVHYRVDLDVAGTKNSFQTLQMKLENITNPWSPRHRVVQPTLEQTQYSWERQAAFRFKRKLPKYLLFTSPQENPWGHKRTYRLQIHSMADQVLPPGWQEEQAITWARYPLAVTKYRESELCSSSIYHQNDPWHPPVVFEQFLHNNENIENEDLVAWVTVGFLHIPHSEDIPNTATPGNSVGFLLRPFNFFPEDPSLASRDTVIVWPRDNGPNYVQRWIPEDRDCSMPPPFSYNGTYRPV
How it was run: as §1

[5] = recombinant human VAP-1, benzylamine substrate
[6] = recombinant human VAP-1, 30 min preincubation at 37° C., 1 mM benzylamine

SMILES	IC50 ([1]; 0.5 mM tyramine substrate) [nM]	IC50 [2, 5] [nM]	IC50 ([3]; 1 mM benzylamine substrate) [nM]	IC50 ([4]; 1 mM putrescine substrate) [nM]	IC50 ([1]; 0.5 mM tyramine) [nM]	IC50 [2, 6] [nM]	IC50 ([3]; 1 mM benzylamine) [nM]	IC50 ([4]; 1 mM putrescine) [nM]
CS(=O)(=O)c1ccc(-c2cccc(Cn3cnn(CC(CN)=C(F)F)c3=O)c2)cc1 [Example 272, 2-[2-(aminomethyl)-3,3-difluoro-allyl]-4-[[3-(4-methylsulfonylphenyl)phenyl]methyl]-1,2,4-triazol-3-one Trifluoroacetate]	> 100000	3.2	23800	4330	–	–	–	–
NCC(Cn1ncn(-c2ncc(-c3ccc4c(c3)OCO4)cc2F)c1=O)=C(F)F [Example 85, 2-[2-(aminomethyl)-3,3-difluoro-allyl]-4-[5-(1,3-benzodioxol-5-yl)-3-fluoro-2-pyridyl]-1,2,4-triazol-3-one Trifluoroacetate]	–	–	–	–	> 100000	0.2	130	180
Cc1cc(-c2ccc(-n3cnn(CC(CN)=C(F)F)c3=O)c(F)c2)cc2c1NC(=O)CC2 [Example 36, 6-[4-[1-[2-(aminomethyl)-3,3-difluoro-allyl]-5-oxo-1,2,4-triazol-4-yl]-3-fluoro-phenyl]-8-methyl-3,4-dihydro-1H-quinolin-2-one Trifluoroacetate]	–	–	–	–	> 100000	0.1	160	97
CS(=O)(=O)c1ccc(-c2cnc(-n3cnn(CC(CN)=C(F)F)c3=O)c(F)c2)cc1 [Example 82, 2-[2-(aminomethyl)-3,3-difluoro-allyl]-4-[3-fluoro-5-(4-methylsulfonylphenyl)-2-pyridyl]-1,2,4-triazol-3-one Trifluoroacetate]	–	–	–	–	> 100000	0.1	3700	13
NCC(Cn1ncn(Cc2ccc(-c3cccc(-c4cc[nH]n4)c3)s2)c1=O)=C(F)F [Example 110, 2-[2-(aminomethyl)-3,3-difluoro-allyl]-4-[[5-[3-(1H-pyrazol-3-yl)phenyl]-2-thienyl]methyl]-1,2,4-triazol-3-one Trifluoroacetate]	–	–	–	–	> 10000	1.3	8700	> 100000
CCn1cc(-c2ccccc2Cn2cnn(CC(CN)=C(F)F)c2=O)cn1 [Example 278, 2-[2-(aminomethyl)-3,3-difluoro-allyl]-4-[[2-(1-ethylpyrazol-4-yl)phenyl]methyl]-1,2,4-triazol-3-one trifluoroacetate]	> 100000	17	> 100000	> 100000	–	–	–	–
CS(=O)(=O)c1ccc(-c2ccc(-n3cnn(CC(CN)=C(F)F)c3=O)cc2F)cc1 [Example 24, 2-[2-(aminomethyl)-3,3-difluoro-allyl]-4-[3-fluoro-4-(4-methylsulfonylphenyl)phenyl]-1,2,4-triazol-3-one Trifluoroacetate]	–	–	–	–	> 100000	2.7	3300	600
NCC(Cn1ncn(Cc2ccc(C#Cc3ccc4c(c3)NCCO4)s2)c1=O)=C(F)F [Example 164, 2-[2-(aminomethyl)-3,3-difluoro-allyl]-4-[[5-[2-(3,4-dihydro-2H-1,4-benzoxazin-6-yl)ethynyl]-2-thienyl]methyl]-1,2,4-triazol-3-one Ditrifluoroacetate]	–	–	–	–	4000	2.5	34000	> 10000
Cc1ccc(Br)nc1-n1cnn(CC(CN)=C(F)F)c1=O [Example 15, 2-[2-(aminomethyl)-3,3-difluoro-allyl]-4-(6-bromo-3-methyl-2-pyridyl)-1,2,4-triazol-3-one Trifluoroacetate]	–	–	–	–	> 100000	3	> 100000	> 100000
Cc1cc(-c2ccc3sc(Cn4cnn(CC(CN)=C(F)F)c4=O)cc3c2)cc2c1NC(=O)CC2 [Example 210, 6-[2-[[1-[2-(aminomethyl)-3,3-difluoro-allyl]-5-oxo-1,2,4-triazol-4-yl]methyl]benzothiophen-5-yl]-8-methyl-3,4-dihydro-1H-quinolin-2-one Trifluoroacetate]	> 100000	1.5	> 100000	1230	–	–	–	–
CN1CC=C(c2ccc(Cn3cnn(CC(CN)=C(F)F)c3=O)s2)CC1 [Example 124, 2-[2-(aminomethyl)-3,3-difluoro-allyl]-4-[[5-(1-methyl-3,6-dihydro-2H-pyridin-4-yl)-2-thienyl]methyl]-1,2,4-triazol-3-one Trifluoroacetate]	–	–	–	–	> 100000	11	> 100000	> 100000
CN(C)c1ccc(-c2ccc3sc(Cn4cnn(CC(CN)=C(F)F)c4=O)cc3c2)cn1 [Example 208, 2-[2-(aminomethyl)-3,3-difluoro-allyl]-4-[[5-[6-(dimethylamino)-3-pyridyl]benzothiophen-2-yl]methyl]-1,2,4-triazol-3-one Trifluoroacetate]	89900	2.5	42400	> 100000	–	–	–	–
